We go through 24 compounds from US20170355705A1 (GlaxoSmithKline Intellectual Property (No.2) Limited, priority 2014, published 2017).

SMILES strings stand for the structures.

The target in this assay is T1, SIRT1 (Homo sapiens, UniProt Q96EB6).
T1 sequence (Q96EB6 1-747): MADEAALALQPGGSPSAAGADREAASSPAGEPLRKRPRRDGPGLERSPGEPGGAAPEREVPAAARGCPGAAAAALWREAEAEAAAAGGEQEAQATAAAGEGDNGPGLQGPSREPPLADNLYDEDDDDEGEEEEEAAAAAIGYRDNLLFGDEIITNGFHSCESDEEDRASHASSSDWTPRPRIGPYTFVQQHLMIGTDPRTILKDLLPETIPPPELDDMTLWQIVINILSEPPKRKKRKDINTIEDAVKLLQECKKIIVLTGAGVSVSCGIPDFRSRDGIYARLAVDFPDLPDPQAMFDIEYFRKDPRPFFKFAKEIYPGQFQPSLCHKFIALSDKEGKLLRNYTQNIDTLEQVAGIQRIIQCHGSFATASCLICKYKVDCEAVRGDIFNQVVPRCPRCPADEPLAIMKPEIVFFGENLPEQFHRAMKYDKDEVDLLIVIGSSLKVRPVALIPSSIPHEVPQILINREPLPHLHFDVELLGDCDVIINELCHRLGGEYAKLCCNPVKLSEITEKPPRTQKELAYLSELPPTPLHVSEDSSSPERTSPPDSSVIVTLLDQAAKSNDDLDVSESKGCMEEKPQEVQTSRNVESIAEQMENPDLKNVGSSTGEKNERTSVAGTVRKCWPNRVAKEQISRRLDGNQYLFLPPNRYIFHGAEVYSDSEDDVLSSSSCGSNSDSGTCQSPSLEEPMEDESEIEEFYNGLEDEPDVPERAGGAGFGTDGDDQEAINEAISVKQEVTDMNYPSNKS
The assay is described as follows: Trp mass spectrometry assay of SIRT1 activity (EC1.5, percent maximum activation). The assay is classed as biochemical. To be noted: Trp mass spectrometry assay; 0.5 μM peptide substrate, 120 μM βNAD+, 10 nM SIRT1, 25 minutes at 25° C. Put shortly: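 N-terminal His-tagged human SIRT1, expressed in BL21(DE3) and purified, was incubated 25 min with an acetylated Trp peptide and NAD plus test compound at varying concentrations, then quenched with formic acid. OAADPR or deacetylated peptide was quantified by mass spectrometry versus compound-free control; EC1.5 is the concentration giving 50% activity increase, with percent maximum activation.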
In the case of `Cc1cc(C)c(-c2ccc3c(n2)N(C(=O)Nc2cccnc2)[C@H]2CCN3C2)cn1` [Example 236, (4S)-7-(4,6-dimethylpyridin-3-yl)-N-(pyridin-3-yl)-3,4-dihydro-1,4-methano pyrido[2,3-b][1,4]diazepine-5(2H)-carboxamide], the “TRP Activity (EC1.5, concentration of test compound that results in 150% activation of SIRT1)” value is given as “B (EC1.5 1-25 μM)” and the “TRP MAX RESP (percent maximum fold activation)” value is “A (Fold activation ≧150%)”. For `Cc1ccc(-c2ccc3c(n2)N(C(=O)NCC(C)(C)C)[C@H]2CCN3C2)cn1` [Example 237, (4S)-7-(6-methylpyridin-3-yl)-N-neopentyl-3,4-dihydro-1,4-methanopyrido[2,3-b][1,4]diazepine-5(2H)-carboxamide], the “TRP Activity (EC1.5, concentration of test compound that results in 150% activation of SIRT1)” value was “C (EC1.5>25 μM)” and the “TRP MAX RESP (percent maximum fold activation)” value is “B (Fold Activation <150%)”. On the same counts, the results for `Cc1ccc(-c2ccc3c(n2)N(C(=O)Nc2cncc(C)n2)[C@H]2CCN3C2)cn1` [Example 238, (4S)-N-(6-methylpyrazin-2-yl)-7-(6-methylpyridin-3-yl)-3,4-dihydro-1,4-methanopyrido[2,3-b][1,4]diazepine-5(2H)-carboxamide] are “B (EC1.5 1-25 μM)” and “A (Fold activation ≧150%)”. With `N#Cc1ccc(-c2ccc3c(n2)N(C(=O)Nc2cccnc2)[C@H]2CCN3C2)cn1` [Example 245], the “TRP MAX RESP (percent maximum fold activation)” value was “A (Fold activation ≧150%)”. In the case of `CC(C)n1cc(-c2ccc3c(n2)N(C(=O)Nc2cnccn2)[C@H]2CCN3C2)cn1` [Example 252], the “TRP MAX RESP (percent maximum fold activation)” value is “A (Fold activation ≧150%)”. Regarding `Cc1cc(-c2ccc3c(n2)N(C(=O)Nc2nccc(C)n2)[C@H]2CCN3C2)ccn1` [Example 263], the “TRP MAX RESP (percent maximum fold activation)” value is given as “A (Fold activation ≧150%)”. Still for that read-out and setting: under `Cn1ccc(-c2ccc3c(n2)N(C(=O)Nc2cnccn2)[C@H]2CCN3C2)cc1=O` [Example 264] stands “A (Fold activation ≧150%)”; under `Cc1cc(-c2ccc3c(n2)N(C(=O)Nc2cc(-c4cnc(C)s4)ccn2)[C@H]2CCN3C2)ccn1` [Example 295], “A (Fold activation ≧150%)”. Turning to `Nc1ccc(-c2ccc3c(n2)N(C(=O)Nc2ccccn2)[C@H]2CCN3C2)cn1` [Example 299], the “TRP MAX RESP (percent maximum fold activation)” value is “A (Fold activation ≧150%)”. Regarding `CC(C)(CO)COc1cncc(NC(=O)N2c3nc(-c4cccc(C(F)(F)F)c4)ccc3N3CC[C@H]2C3)n1` [Example 304, (4S)-N-(6-(3-hydroxy-2,2-dimethylpropoxy)pyrazin-2-yl)-7-(3-(trifluoromethyl)phenyl)-3,4-dihydro-1,4-methanopyrido[2,3-b][1,4]diazepine-5(2H)-carboxamide], the “TRP Activity (EC1.5, concentration of test compound that results in 150% activation of SIRT1)” value is reported as “A (EC1.5<1 μM)” and the “TRP MAX RESP (percent maximum fold activation)” value is “A (Fold activation ≧150%)”. Turning to `O=C(Nc1cncc(OCCCO)n1)N1c2nc(-c3cccc(C(F)(F)F)c3)ccc2N2CC[C@H]1C2` [Example 319], the “TRP MAX RESP (percent maximum fold activation)” value is “A (Fold activation ≧150%)”.

Consider `CC(C)(CO)COc1nccc(NC(=O)N2c3nc(-c4cccc(C(F)(F)F)c4)ccc3N3CC[C@H]2C3)n1` [Example 321, (4S)-N-(2-(3-hydroxy-2,2-dimethylpropoxy)pyrimidin-4-yl)-7-(3-(trifluoromethyl)phenyl)-3,4-dihydro-1,4-methanopyrido[2,3-b][1,4]diazepine-5(2H)-carboxamide], for which the “TRP Activity (EC1.5, concentration of test compound that results in 150% activation of SIRT1)” value is “B (EC1.5 1-25 μM)” and the “TRP MAX RESP (percent maximum fold activation)” value is on record as “A (Fold activation ≧150%)”. Regarding `Cc1nn(C)cc1-c1ccnc(NC(=O)N2c3nc(-c4ccnc(C(F)(F)F)c4)ccc3N3CC[C@H]2C3)c1` [Example 324], the “TRP MAX RESP (percent maximum fold activation)” value is on record as “A (Fold activation ≧150%)”. For the compound `Cc1cc(-c2ccc3c(n2)N(C(=O)Nc2cc(-c4coc(C)n4)ccn2)[C@H]2CCN3C2)ccn1.Cl` [Example 334, (4S)-N-(4-(2-methyloxazol-4-yl)pyridin-2-yl)-7-(2-methylpyridin-4-yl)-3,4-dihydro-1,4-methanopyrido[2,3-b][1,4]diazepine-5(2H)-carboxamide], the “TRP Activity (EC1.5, concentration of test compound that results in 150% activation of SIRT1)” value is given as “A (EC1.5<1 μM)” and the “TRP MAX RESP (percent maximum fold activation)” value was “A (Fold activation ≧150%)”. With `Cc1cc(-c2ccc3c(n2)N(C(=O)Nc2cc(-n4ccnn4)ccn2)[C@H]2CCN3C2)ccn1` [Example 341], the “TRP MAX RESP (percent maximum fold activation)” value is given as “A (Fold activation ≧150%)”. As to `Cc1cc(-c2ccc3c(n2)N(C(=O)Nc2nccc(-c4cnc(C)o4)n2)[C@H]2CCN3C2)ccn1` [Example 353], the “TRP MAX RESP (percent maximum fold activation)” value is “A (Fold activation ≧150%)”. On the same count and under the same terms, as for `Cc1cc(-c2ccc3c(n2)N(C(=O)Nc2nccc(-c4cnco4)n2)[C@H]2CCN3C2)ccn1` [Example 355], the entry is “A (Fold activation ≧150%)”; as for `Cc1cc(-c2ccc3c(n2)N(C(=O)Nc2cc(N4C[C@@H](C)O[C@@H](C)C4)ccn2)[C@H]2CCN3C2)ccn1` [Example 356], “A (Fold activation ≧150%)”.

With `Cc1cc(-c2ccc3c(n2)N(C(=O)Nc2cc(N4C[C@@H](C)O[C@@H](C)C4)ccn2)[C@H]2CCN3C2)ccn1` [Example 357, (4S)-N-(4-((2S,6R)-2,6-dimethylmorpholino)pyridin-2-yl)-7-(2-methylpyridin-4-yl)-3,4-dihydro-1,4-methanopyrido[2,3-b][1,4]diazepine-5(2H)-carboxamide], the “TRP Activity (EC1.5, concentration of test compound that results in 150% activation of SIRT1)” value was “A (EC1.5<1 μM)” and the “TRP MAX RESP (percent maximum fold activation)” value is recorded as “A (Fold activation ≧150%)”. Turning to `Cc1cc(-c2ccc3c(n2)N(C(=O)Nc2nccc(-c4cn(C)nc4C)n2)[C@H]2CCN3C2)ccn1` [Example 358, (4S)-N-(4-(1,3-dimethyl-1H-pyrazol-4-yl)pyrimidin-2-yl)-7-(2-methylpyridin-4-yl)-3,4-dihydro-1,4-methanopyrido[2,3-b][1,4]diazepine-5(2H)-carboxamide], the “TRP Activity (EC1.5, concentration of test compound that results in 150% activation of SIRT1)” value was “B (EC1.5 1-25 μM)” and the “TRP MAX RESP (percent maximum fold activation)” value is recorded as “A (Fold activation ≧150%)”. Regarding `O=C(Nc1ncnc2cccc(F)c12)N1c2nc(-c3cccc(C(F)(F)F)c3)ccc2N2CC[C@H]1C2` [Example 361], the “TRP MAX RESP (percent maximum fold activation)” value is recorded as “A (Fold activation ≧150%)”.

Consider `Cc1cc(-c2ccc3c(n2)N(C(=O)Nc2cc(-c4c(C)nn(C)c4C)ccn2)[C@H]2CCN3C2)ccn1` [Example 365], for which the “TRP MAX RESP (percent maximum fold activation)” value is on record as “A (Fold activation ≧150%)”. Still for that read-out and setting: under `Cc1cc(-c2ccc3c(n2)N(C(=O)Nc2cc(-c4cnn(CC(F)(F)F)c4)ccn2)[C@H]2CCN3C2)ccn1` [Example 366] stands “A (Fold activation ≧150%)”. The same measure, in the same setting: as for `Cc1cc(-c2ccc3c(n2)N(C(=O)Nc2cc(N4CCCC4)ccn2)[C@H]2CCN3C2)ccn1` [Example 367], the entry is “A (Fold activation ≧150%)”.
